Converted amounts (≈) assume the structure as drawn. “And” between values parts separate entries of the source, which are not always exact repeats. Identical values can stand only once. “Also recorded” adds a separate entry of the source.
Columns and labels:
[1] = test system: 9 L brain tumors; conditions: no producer cell injections; Barba et al. 1993; cited from earlier work
[2] = test system: 9 L brain tumors; experiment: Long-term (90-day) survival of rats with 9 L brain tumors after HSV-TK producer cells and GCV; type: in vivo, Fischer 344 rats; conditions: for treated animals surviving 90 days: both long-term trials combined, HSV-TK producer cells plus GCV
Method: (§1) Tumor Cell and Producer Cell Implantation. The 9 L cells were maintained in Dulbecco's modified Eagle's medium with 10% fetal bovine serum, penicillin G (100 units/ml), streptomycin sulfate (100 μg/ml). Brain tumors were established in adult female Fischer 344 rats which were housed and handled in accordance with National Institutes of Health guidelines.
(§2) In all studies tumors were implanted by an intracerebral injection of 2×10^5 tumor cells into the region of the right caudate nucleus (3 mm lateral, 1 mm anterior to bregma, 4 mm ventral) (Paxinos, G. & Watson, C. (1987) The Rat Brain in Stereotaxic Coordinates (University Press ***).
Two trials of long-term (90-day) survival were performed. In the first, producer cells (2×10^5), equal to the initial number of tumor cells implanted) were grafted into 3-day-old brain tumors. GCV treatments were started in 12 animals 7 days later (tumor day 10) and continued for 7 days; 8 animals received no GCV. In the second trial, 2×10^5 or 2×10^6 producer cells in 50 μl (representing 1× or 10× the number of injected tumor cells, respectively) were grafted into 3-day-old established brain tumors of 10 animals per group. GCV treatments started 7 days later and were administered for 14 days.
(§3) Long-term results were studied in 90-day survival studies with tumor volumes determined in long-term survivors. Stained brain sections were examined and tumor volumes were quantified by stereologic methods (Gundersen, H. J. G., Bagger, P. & Bendtsen, T. F. (1988) APMIS ***96, 857-881). Tumor volumes were compared by the Mann-Whitney U test. In long-term survival experiments (90 days), animals were observed daily and survival data were analyzed by Kaplan-Meier analysis with the Mantel-Cox statistic.

[3] = test system: 9 L tumor cells; experiment: Repeat tumor challenge in long-term survivors; type: in vivo, Fischer 344 rats
Text: Repeat Tumor Challenge. Four animals with long-term tumor regression were studied with repeat tumor challenges 90 days after the initial tumor implantation. Animals underwent repeated intracerebral injections of 2×10^5 9 L tumor cells into the left caudate nucleus and injections of 1×10^6 9 L tumor cells into the right flank. Five normal, naive rats received identical injections of 9 L tumor cells. Animals were sacrificed and perfused 17 days later to determine resulting tumor volumes.

[4] = test system: 9 L brain tumors; experiment: Short-term (17 days) 9 L brain tumor volume after HSV-TK producer cell implantation and GCV; type: in vivo, Fischer 344 rats
Method: as §1, §2
Animals in short-term studies underwent a second surgery 3 days after tumor implantation, at which time retroviral producer cells (either 2×10^5 in 4 μl or 2×10^6 in 8 μl, representing an equal, number (1×) or 10 times (10×) the number of injected tumor cells, respectively) were implanted into the established brain tumors and allowed to grow with brain tumor cells for 7 days. Ten days after tumor implantation, subsets of animals were given 0.2 ml intraperitoneal injections of GCV (Syntex, Palo Alto, Calif.) 50 mg/kg once a day for 7 or 14 days. Animals in the short-term experiments were sacrificed after 7 days of GCV administration (17 days after tumor implantation) and then perfused with 4% paraformaldehyde.
Brain Tumor Analysis. Short-term treatment response was determined by comparing individual brain tumor volumes measured by postmortem stereologic study in groups containing a minimum of five animals.
as §3

[5] = test system: C6 glial tumor cells infected with STK, NTK or μTK vector; experiment: Survival of C6 glioma clones carrying HSV-TK vectors in increasing concentrations of acyclovir; type: cell-based; conditions: C6 clones infected with each vector (STK, NTK, μTK); acyclovir 0.1 to 100 μg/ml for 3 days
Method: Murine retroviral vectors carrying the HSV-TK gene, the STK, NTK, and μTK vectors, were obtained from Dr. F. L. Moolten. The plasmid forms of the vectors were transfected into −2 cells (Mann et al., Cell 33:153-159 (1983)); selection with 1 mg/ml of the neomycin analog G418 permitted the isolation of clone producer lines that yielded viruses capable of transducing G418 resistance and HSV-TK activity. Virus titers were determined by the limiting dilution method and found to be greater than 50 pfu/cell. As expected with −2 cells, no replication-competent virus was detected.
The replicative defective viruses produced by −2 cells were used to infect C6 glial tumor cells. The cells to be infected were grown in DME plus 10% fetal bovine serum plus 4 μg/ml of polybrene and were grown to about 60-70% confluence in a T75 flask or about 2×10^6 cells/ml. The cells were infected with about 100 pfu/cell of virus. The infected cells were cultured for 24 hours with Dulbecco's Medium containing 10% fetal bovine serum and antibiotics; afterwards they were exposed to 1 mg of G418/ml to select for cells that expressed vector-derived genes.
Clones resulting from infection of C6 glial cells with each of the vectors were exposed to acyclovir at concentrations ranging from 0.1 to 100 μg/ml for 3 days. Each vector rendered the glial cells sensitive to acyclovir.

[6] = test system: cells carrying HSV-TK; experiment: 3-day cytotoxicity assay, cells carrying HSV-TK; type: cell-based; conditions: 72 h, read-out: inhibitory dose for 50% of the cells
Method: (§4) Similar results were obtained in a 3-day cytotoxicity assay; the inhibitory dose of acyclovir for 50% of the cells lacking the HSV-TK gene was greater than […] for cells carrying HSV-TK.

[7] = test system: cells lacking the HSV-TK gene; experiment: 3-day cytotoxicity assay, cells lacking the HSV-TK gene; type: cell-based; conditions: 72 h, read-out: inhibitory dose for 50% of the cells
Method: as §4

[8] = HSV-TK producer cells plus GCV, 17-day-old tumors

SMILES: Nc1nc2c(ncn2COC(CO)CO)c(=O)[nH]1 [GCV, 9-((2-hydroxy-1-(hydroxymethyl)ethoxy)methyl) guanine]
- tumor regression in animals treated with GCV without producer cell injections [1]: not seen
- animals alive after 90 days in each experimental group, second trial ([2]; 1× or 10× producer cells, 10 animals per group, GCV for 14 days): two
- treated animals surviving 90 days, first trial ([2]; 2×10^5 producer cells, GCV for 7 days from tumor day 10, none of 8 untreated survived longer than 25 days): 3 of 12
- tumor volume in the third surviving treated animal, first trial ([2]; 90 days): 62 mm^3
- residual tumor volume in two of the surviving treated animals, first trial ([2]; 90 days, small intracerebral cysts): < 0.2 mm^3
- survival, GCV for 7 versus 14 days ([2]; both groups receiving 1× producer cells): no difference
- survival, 1× versus 10× producer cells ([2]; both groups receiving GCV for 14 days): No difference in survival
- treated animals surviving 90 days [2]: 22%
- treated animals surviving 90 days ([2]; controls 0/8): 7 of 32 and 7/32
- survival of treated versus control animals ([2]; combined treated groups, Kaplan-Meier, P<0.002): highly significant difference; also recorded: significant improvement in survival
- flank tumor nodules after repeat challenge ([3]; 1×10^6 9 L cells into right flank, 17 days, flank tumors in four of five naive rats): failed to detect any tumor nodules
- tumor volume at the site of the secondary tumor cell implants (left hemisphere) ([3]; 2×10^5 9 L cells, 17 days after repeat challenge, naive animals 129-169): < 0.2 mm^3
- tumor volume at the site of the initial tumor cell implantation in long-term survivors ([3]; four long-term survivors of second trial, 17 days after repeat challenge): 0.6-2.0 mm^3
- growth of repeat tumor injections in rats surviving 90 days ([3]; repeat 9 L injections after HSV-TK producer cells and GCV, tumors grew in naive rats): rejected repeat tumor injections; also recorded: absence of growth of injected tumor cells; also recorded: inhibition of growth of the injected tumor cells
- tumor volume / tumor regression versus rats not treated with GCV ([4]; HSV-TK producer cells (1:1 or 10:1) implanted day 3, GCV 50 mg/kg per day i.p. for 7 days, day 17): Significant tumor regression; also recorded: significantly smaller
- treated animals with focal regression of part of the tumor adjacent to unaffected tumor [4, 8]: about 50%
- treated animals with unaffected tumors [4, 8]: about 10%

SMILES: Nc1nc2c(ncn2COCCO)c(=O)[nH]1 [acyclovir, 9-((2-hydroxyethoxy)methyl)guanine]
- sensitivity of glial cells to acyclovir (survival, FIG. 2) [5]: sensitive
- IC50 [6]: 0.5 µg/mL (≈ 2.22 µM)
- IC50 [7]: > 10 µg/mL

From patent publication US6663858B1, “In Vivo gene transfer using implanted retroviral producer cells” (The Regents of the University of California, priority 1991, dated 2003)
